Measured values taken from ChEMBL document CHEMBL5096206, “From natural products to HDAC inhibitors: An overview of drug discovery and design strategy” (Bioorg Med Chem, 2021).
pIC50: −log10 of the molar value. ≈ marks a conversion by molar mass, not a printed value.

Legend:
T47D [1] = test: Antiproliferative activity against human T47D cells assessed as cell growth inhibition by burton method; format: functional, cell-based
MCF7 [2] = test: cells; details: Homo sapiens
Description: Antiproliferative activity against human MCF7 cells assessed as cell growth inhibition by SRB assay

BT-474 = test: Antiproliferative activity against human BT-474 cells assessed as cell growth inhibition by SRB assay; format: functional, cell-based
MCF7 [3] = test: cells; details: Homo sapiens, MCF7, 72 h
Description: Antiproliferative activity against human MCF7 cells assessed as cell growth inhibition measured after 72 hrs by MTT assay

HepG2 [4] = test: cells; details: Homo sapiens, HepG2, 72 h
Description: Antiproliferative activity against human HepG2 cells assessed as cell growth inhibition measured after 72 hrs by MTT assay

Histone deacetylase 4 [5] = target: T1, Histone deacetylase 4 (Homo sapiens, UniProt P56524); test: Inhibition of HDAC4 in human HeLa cells incubated for 1 hr by mass spectrometry method; format: cell-based
P388 = test: Cytotoxicity against mouse P388 cells assessed as cell growth inhibition; format: functional, cell-based
Histone deacetylase 2 [6] = target: T2, Histone deacetylase 2 (Homo sapiens, UniProt Q92769); test: Inhibition of human recombinant full-length His-tagged HDAC2 expressed in baculovirus expression system incubated for 2 hrs by fluorescence based analysis
MDA-MB-231 = test: Antiproliferative activity against human MDA-MB-231 cells assessed as cell growth inhibition; format: functional, cell-based
BT-20 = test: Antiproliferative activity against human BT-20 cells assessed as cell growth inhibition; format: functional, cell-based
MCF7 [7] = test: cells; details: Homo sapiens; remark: listed apart in the source
Histone deacetylase 3 = Histone deacetylase 3 (Homo sapiens, UniProt O15379); test: Inhibition of human recombinant His-tagged HDAC3 expressed in baculovirus expression system incubated for 2 hrs by fluorescence based analysis
T47D [8] = test: Antiproliferative activity against human T47D cells assessed as cell growth inhibition; format: functional, cell-based
Histone deacetylase 1 [9] = target: T3, Histone deacetylase 1 (Homo sapiens, UniProt Q13547); test: Inhibition of human recombinant His-tagged HDAC1 expressed in baculovirus expression system incubated for 2 hrs by fluorescence based analysis
Histone deacetylase 8 = Histone deacetylase 8 (Homo sapiens, UniProt Q9BY41); test: Inhibition of human recombinant His-tagged HDAC8 expressed in Escherichia coli incubated for 2 hrs by fluorescence based analysis
HA22T cell line = test: Antiproliferative activity against human HA22T cell line assessed as cell growth inhibition; format: functional, cell-based
MCF10 = test: Antiproliferative activity against human MCF10 cells assessed as cell growth inhibition; format: functional, cell-based
Huh-7 = test: Antiproliferative activity against human Huh-7 cells assessed as cell growth inhibition; format: functional, cell-based
[10] = Cytotoxicity against human CCD-18Co assessed as cell growth inhibition; format: toxicity, cell-based; details: CCD-18Co cells
Hep 3B2 = test: Antiproliferative activity against human Hep3B cells assessed as cell growth inhibition; format: functional, cell-based
AGS = test: Antiproliferative activity against human AGS cells assessed as cell growth inhibition; format: functional, cell-based
HepG2 [11] = test: Antiproliferative activity against human HepG2 cells assessed as cell growth inhibition; format: functional, cell-based
[12] = Inhibition of HDAC in Sprague-Dawley rat hepatocytes using Fluor de Lys as substrate incubated for 15 mins by fluorometric assay; format: cell-based; details: Hepatocyte, 0.25 h
HT-29 = test: Inhibition of colony formation in human HT-29 cells at 0.5 to 5 uM measured after 10 days by methylene blue staining based analysis relative to control; format: functional; details: dose 0.5-5 µM, time 10 day
[13] = target: T4, Protein deacetylase HDAC6 (Homo sapiens, UniProt Q9UBN7); test: Inhibition of recombinant HDAC6 (unknown origin) using AMC-K(Ac)GL as substrate by fluorescence based analysis
Histone deacetylase 1 [14] = target: T3, Histone deacetylase 1; test: Inhibition of recombinant HDAC1 (unknown origin) using AMC-K(Ac)GL as substrate by fluorescence based analysis
[15] = Half life in mouse; format: ADME, organism-based; details: in vivo
Histone deacetylase 1 [16] = target: T3, Histone deacetylase 1; test: Inhibition of HDAC1 (unknown origin)
[17] = target: T4, Protein deacetylase HDAC6; test: Inhibition of HDAC6 (unknown origin)
Histone deacetylase 5 = Histone deacetylase 5 (Homo sapiens, UniProt Q9UQL6); test: Inhibition of HDAC5 (unknown origin)
Histone deacetylase 4 [18] = target: T1, Histone deacetylase 4; test: Inhibition of HDAC4 (unknown origin)
Histone deacetylase 2 [19] = target: T2, Histone deacetylase 2; test: Inhibition of HDAC2 in human MCF7 cells using TMB as substrate incubated for 2 hrs by ELISA analysis; format: cell-based
Histone deacetylase 1 [20] = target: T3, Histone deacetylase 1; test: Inhibition of HDAC1 in human MCF7 cells using TMB as substrate incubated for 2 hrs by ELISA analysis; format: cell-based
Tubulin beta = test: Inhibition of beta-tubulin polymerization in human MCF7 cells using TMB as substrate incubated for 2 hrs by spectrophotometry analysis; format: cell-based

T1 sequence (P56524 whole entry): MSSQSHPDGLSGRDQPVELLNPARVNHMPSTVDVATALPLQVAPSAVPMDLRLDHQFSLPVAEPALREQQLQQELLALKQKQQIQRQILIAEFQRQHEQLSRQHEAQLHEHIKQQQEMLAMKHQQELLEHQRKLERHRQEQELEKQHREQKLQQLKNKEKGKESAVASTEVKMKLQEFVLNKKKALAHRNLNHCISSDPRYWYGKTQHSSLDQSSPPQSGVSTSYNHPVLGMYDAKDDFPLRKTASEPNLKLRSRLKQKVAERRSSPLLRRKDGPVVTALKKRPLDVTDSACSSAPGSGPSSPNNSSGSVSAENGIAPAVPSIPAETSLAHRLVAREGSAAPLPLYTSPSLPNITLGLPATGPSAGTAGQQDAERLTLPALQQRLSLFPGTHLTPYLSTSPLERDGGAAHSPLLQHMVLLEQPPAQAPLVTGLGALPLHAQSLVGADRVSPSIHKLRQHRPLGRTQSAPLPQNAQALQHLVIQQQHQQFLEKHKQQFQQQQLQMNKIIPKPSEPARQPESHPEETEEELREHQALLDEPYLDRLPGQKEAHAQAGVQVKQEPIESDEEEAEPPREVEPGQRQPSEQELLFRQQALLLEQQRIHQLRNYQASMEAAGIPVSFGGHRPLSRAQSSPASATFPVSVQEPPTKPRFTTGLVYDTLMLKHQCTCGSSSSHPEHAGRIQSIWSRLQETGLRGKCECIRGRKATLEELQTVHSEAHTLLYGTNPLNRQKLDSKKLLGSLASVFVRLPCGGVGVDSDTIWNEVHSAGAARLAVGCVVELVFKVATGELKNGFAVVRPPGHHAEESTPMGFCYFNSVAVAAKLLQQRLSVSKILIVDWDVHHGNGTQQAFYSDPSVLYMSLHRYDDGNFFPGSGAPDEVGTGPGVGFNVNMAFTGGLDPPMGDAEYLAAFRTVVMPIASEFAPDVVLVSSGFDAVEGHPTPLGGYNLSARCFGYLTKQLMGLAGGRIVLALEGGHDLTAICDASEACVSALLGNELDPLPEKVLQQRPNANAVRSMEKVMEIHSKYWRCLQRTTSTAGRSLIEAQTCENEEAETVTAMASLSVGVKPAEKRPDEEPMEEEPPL
T3 sequence (Q13547 whole entry): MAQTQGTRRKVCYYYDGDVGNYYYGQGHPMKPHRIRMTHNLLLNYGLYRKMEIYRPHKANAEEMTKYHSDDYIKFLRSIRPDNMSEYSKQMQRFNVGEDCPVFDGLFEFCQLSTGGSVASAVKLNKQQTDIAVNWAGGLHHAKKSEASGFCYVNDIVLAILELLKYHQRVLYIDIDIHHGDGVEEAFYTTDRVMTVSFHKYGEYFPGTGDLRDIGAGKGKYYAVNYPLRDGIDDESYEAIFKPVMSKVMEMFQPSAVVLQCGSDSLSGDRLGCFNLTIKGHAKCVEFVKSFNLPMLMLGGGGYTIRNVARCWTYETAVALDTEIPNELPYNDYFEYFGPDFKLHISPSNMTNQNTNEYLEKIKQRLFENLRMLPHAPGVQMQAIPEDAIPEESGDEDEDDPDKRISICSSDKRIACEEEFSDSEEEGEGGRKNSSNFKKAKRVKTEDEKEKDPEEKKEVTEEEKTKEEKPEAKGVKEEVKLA
T4 sequence (Q9UBN7 whole entry): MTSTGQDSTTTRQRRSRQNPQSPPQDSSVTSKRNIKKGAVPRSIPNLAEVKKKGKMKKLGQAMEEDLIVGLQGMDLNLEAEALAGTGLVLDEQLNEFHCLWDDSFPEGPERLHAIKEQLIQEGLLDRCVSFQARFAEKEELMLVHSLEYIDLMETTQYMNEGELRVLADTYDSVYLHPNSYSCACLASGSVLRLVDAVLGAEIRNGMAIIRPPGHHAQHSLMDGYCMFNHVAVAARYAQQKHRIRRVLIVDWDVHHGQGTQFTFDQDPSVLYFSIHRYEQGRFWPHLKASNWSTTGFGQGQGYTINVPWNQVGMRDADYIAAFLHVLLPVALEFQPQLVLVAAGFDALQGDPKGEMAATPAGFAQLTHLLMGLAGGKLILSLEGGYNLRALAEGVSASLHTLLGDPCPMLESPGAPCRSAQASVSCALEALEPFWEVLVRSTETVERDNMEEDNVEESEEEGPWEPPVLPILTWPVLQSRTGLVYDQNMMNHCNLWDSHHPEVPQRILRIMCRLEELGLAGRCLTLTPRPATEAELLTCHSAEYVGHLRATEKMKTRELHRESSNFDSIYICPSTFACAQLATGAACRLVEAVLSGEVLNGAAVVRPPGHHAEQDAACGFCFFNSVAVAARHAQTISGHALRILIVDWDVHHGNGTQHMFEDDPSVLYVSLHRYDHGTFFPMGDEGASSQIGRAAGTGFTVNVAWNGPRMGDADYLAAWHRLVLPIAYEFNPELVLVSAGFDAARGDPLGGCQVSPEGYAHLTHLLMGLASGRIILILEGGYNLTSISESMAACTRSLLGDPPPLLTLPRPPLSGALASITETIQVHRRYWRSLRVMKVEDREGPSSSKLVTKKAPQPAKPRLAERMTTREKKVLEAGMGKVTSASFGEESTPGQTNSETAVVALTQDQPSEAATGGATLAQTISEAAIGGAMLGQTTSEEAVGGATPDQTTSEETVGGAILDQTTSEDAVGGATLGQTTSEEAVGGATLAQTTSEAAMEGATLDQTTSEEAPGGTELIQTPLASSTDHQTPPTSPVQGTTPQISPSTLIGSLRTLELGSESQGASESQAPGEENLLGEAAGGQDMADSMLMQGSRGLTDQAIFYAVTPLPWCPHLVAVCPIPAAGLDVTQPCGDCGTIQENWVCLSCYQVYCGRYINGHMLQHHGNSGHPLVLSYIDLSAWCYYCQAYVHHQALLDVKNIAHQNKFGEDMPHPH
T2 sequence (Q92769 whole entry): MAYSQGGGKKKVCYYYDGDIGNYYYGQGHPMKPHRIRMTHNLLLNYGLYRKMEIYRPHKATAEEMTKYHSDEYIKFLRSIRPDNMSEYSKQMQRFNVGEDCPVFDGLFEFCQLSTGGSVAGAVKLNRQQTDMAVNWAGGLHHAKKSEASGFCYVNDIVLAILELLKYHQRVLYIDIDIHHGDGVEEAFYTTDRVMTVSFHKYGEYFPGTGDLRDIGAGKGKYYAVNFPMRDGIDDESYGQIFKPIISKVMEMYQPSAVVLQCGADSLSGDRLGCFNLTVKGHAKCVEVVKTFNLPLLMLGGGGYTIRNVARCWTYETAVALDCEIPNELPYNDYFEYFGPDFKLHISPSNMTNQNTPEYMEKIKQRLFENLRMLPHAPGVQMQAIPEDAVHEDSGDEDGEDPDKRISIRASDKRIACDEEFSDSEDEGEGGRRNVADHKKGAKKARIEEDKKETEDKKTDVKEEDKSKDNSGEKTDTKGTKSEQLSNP
Sequence of Histone deacetylase 5 (Q9UQL6 whole entry): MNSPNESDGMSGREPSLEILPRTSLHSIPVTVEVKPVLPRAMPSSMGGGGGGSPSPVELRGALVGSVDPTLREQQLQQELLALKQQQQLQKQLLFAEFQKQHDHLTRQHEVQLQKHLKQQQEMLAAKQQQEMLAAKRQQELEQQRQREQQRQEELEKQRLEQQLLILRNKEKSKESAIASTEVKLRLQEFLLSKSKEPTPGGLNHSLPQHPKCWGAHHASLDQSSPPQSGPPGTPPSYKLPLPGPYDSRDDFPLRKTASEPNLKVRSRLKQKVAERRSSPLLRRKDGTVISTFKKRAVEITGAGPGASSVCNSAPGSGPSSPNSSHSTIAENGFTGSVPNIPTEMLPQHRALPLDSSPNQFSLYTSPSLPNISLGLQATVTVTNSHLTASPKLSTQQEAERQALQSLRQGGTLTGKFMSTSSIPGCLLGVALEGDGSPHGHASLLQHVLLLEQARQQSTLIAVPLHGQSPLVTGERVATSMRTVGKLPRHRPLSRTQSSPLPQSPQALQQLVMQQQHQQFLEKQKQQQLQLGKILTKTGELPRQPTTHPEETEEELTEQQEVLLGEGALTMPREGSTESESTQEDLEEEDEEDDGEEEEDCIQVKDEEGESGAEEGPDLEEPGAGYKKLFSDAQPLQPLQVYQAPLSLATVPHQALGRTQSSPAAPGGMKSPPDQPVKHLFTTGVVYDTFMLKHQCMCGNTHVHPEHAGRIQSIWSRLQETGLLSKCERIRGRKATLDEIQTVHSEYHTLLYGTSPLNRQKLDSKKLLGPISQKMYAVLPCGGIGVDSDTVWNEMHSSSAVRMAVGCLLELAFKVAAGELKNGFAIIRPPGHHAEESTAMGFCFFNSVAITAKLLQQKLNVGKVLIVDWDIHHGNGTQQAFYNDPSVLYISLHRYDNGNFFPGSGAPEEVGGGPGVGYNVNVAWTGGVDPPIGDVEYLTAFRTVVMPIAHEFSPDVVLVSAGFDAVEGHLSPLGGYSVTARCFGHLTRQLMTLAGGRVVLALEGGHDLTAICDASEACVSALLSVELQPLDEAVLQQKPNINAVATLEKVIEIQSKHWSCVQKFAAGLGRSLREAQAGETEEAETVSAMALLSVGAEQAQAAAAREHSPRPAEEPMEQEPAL
Sequence of Histone deacetylase 8 (Q9BY41 whole entry): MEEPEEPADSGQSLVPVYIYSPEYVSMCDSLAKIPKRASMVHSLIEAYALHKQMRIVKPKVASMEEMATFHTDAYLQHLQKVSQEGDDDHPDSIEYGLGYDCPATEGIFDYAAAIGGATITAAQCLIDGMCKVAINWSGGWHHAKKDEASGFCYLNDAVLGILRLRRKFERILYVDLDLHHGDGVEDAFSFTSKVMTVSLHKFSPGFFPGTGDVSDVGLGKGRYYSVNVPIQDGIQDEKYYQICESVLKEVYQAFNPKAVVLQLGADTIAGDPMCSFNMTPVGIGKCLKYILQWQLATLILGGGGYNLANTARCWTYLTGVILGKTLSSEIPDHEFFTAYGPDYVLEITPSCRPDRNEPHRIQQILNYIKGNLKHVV

## CC(/C=C/C(=O)NO)=C\[C@@H](C)C(=O)c1ccc(N(C)C)cc1 [TRICHOSTATIN]
T47D [1]
  pIC50: 7.58
MCF7 [2]
  pIC50: 7.56
BT-474
  pIC50: 7.48

## O=C(/C=C/c1ccccc1-c1ccco1)c1ccc(NC(=O)c2ccc(CN3C(=O)c4ccccc4C3=O)cc2)cc1
MCF7 [3]
  pIC50: 5.26
HepG2 [4]
  pIC50: 5.04

## O=C(/C=C/c1ccccc1)c1ccc(NC(=O)c2ccc(CN3C(=O)c4ccccc4C3=O)cc2)cc1
MCF7 [3]
  pIC50: 4.84
HepG2 [4]
  pIC50: 4.89

## C[C@@H](O)C(=O)CCCCC[C@@H]1NC(=O)[C@H]2CCCN2C(=O)[C@H](Cc2ccccc2)NC(=O)[C@H](Cc2ccccc2)NC1=O
Histone deacetylase 4 [5]
  pIC50: 6.55

## CC[C@]1(C)NC(=O)[C@H](CCCCCC(=O)[C@@H](C)O)NC(=O)[C@H]2CCCN2C(=O)[C@H](Cc2ccccc2)NC1=O
Histone deacetylase 4 [5]
  pIC50: 7.30

## O=C(NCCSSCCNC(=O)/C(Cc1ccc(O)c(Br)c1)=N/O)/C(Cc1ccc(O)c(Br)c1)=N/O [PSAMMAPLIN A]
P388
  IC50: 0.3 µg/mL (≈ 0.452 µM)

## CC[C@]1(C)NC(=O)[C@H](CCCCCC(=O)[C@@H](C)O)NC(=O)[C@H]2CC(C)(C)CN2C(=O)[C@H](Cc2ccccc2)NC1=O
Histone deacetylase 4 [5]
  pIC50: 7.05

## CCCC(=O)[O-].[Na+] [SODIUM BUTYRATE]
Histone deacetylase 2 [6]
  pIC50: 4.92
MDA-MB-231
  pIC50: 3.22
BT-20
  pIC50: 2.85
MCF7 [7]
  pIC50: 3.30
Histone deacetylase 3
  pIC50: 5.05
T47D [8]
  pIC50: 3.15
Histone deacetylase 1 [9]
  pIC50: 4.80
Histone deacetylase 8
  pIC50: 4.82

## O=C(/C=C/C1Oc2ccccc2O1)c1ccc(NC(=O)c2ccc(CN3C(=O)c4ccccc4C3=O)cc2)cc1
MCF7 [3]
  pIC50: 5.46
HepG2 [4]
  pIC50: 5.71

## CCC(=O)CCCCC[C@@H]1NC(=O)[C@H]2CCCCN2C(=O)[C@H]([C@@H](C)CC)NC(=O)[C@H](Cc2cc3ccccc3n2OC)NC1=O
HA22T cell line
  pIC50: 6.72
MCF7 [7]
  pIC50: 6.72
MCF10
  pIC50: 6.72
Huh-7
  pIC50: 6.72
[10]
  pIC50: 6.72
Hep 3B2
  pIC50: 6.72
AGS
  pIC50: 6.72
HepG2 [11]
  pIC50: 6.72

## COc1ccc(/C=C\c2cc(OC)c(OC)c(OC)c2)cc1O [COMBRETASTATIN A4]
MCF7 [3]
  pIC50: 5.31

## C[C@@H](O)C(=O)CCCCC[C@@H]1NC(=O)[C@H]2CCCN2C(=O)[C@H](Cc2ccccc2)NC(=O)[C@H](n2ccc3ccccc32)NC1=O
Histone deacetylase 4 [5]
  pIC50: 7.70

## O=C(CCCCCNC(=O)c1cc2ccccc2[nH]1)NO
[12]
  pIC50: 7.85

## COc1ccc(/C=C/C(=O)c2ccc(NC(=O)c3ccc(CN4C(=O)c5ccccc5C4=O)cc3)cc2)cc1
MCF7 [3]
  pIC50: 5.62
HepG2 [4]
  pIC50: 5.73

## C[C@@H](O)C(=O)CCCCC[C@@H]1NC(=O)[C@H]2CCCN2C(=O)[C@H](Cc2ccccc2)NC(=O)C(C)(C)NC1=O
Histone deacetylase 4 [5]
  pIC50: 7.52

## CC[C@@H]1NC(=O)[C@H](CCCCCC(=O)[C@H](C)O)NC(=O)[C@H]2CCCN2C(=O)[C@H](Cc2ccccc2)NC1=O
Histone deacetylase 4 [5]
  pIC50: 6.00

## CC(C)(C)OC(=O)Nc1cccc(C(=O)/C=C/c2ccc(/C=C/C(=O)NO)cc2)c1
HT-29
  inhibition (INH): <=60%
[13]
  pIC50: 8.00
Histone deacetylase 1 [14]
  pIC50: 5.54

## CN(C)c1ccc(C(=O)NCCCCCC(=O)NO)cc1
[12]
  pIC50: 7.62

## CCCC(CCC)C(=O)O [VALPROIC ACID]
[15]
  t1/2: 7 h
Histone deacetylase 1 [16]
  pIC50: 3.40
[17]
  pIC50: 3.00
MCF7 [7]
  pIC50: 3.64
Histone deacetylase 5
  pIC50: 3.00
Histone deacetylase 4 [18]
  pIC50: 3.00

## Cc1cc(/C=C/C(=O)c2ccc(NC(=O)c3ccc(CN4C(=O)c5ccccc5C4=O)cc3)cc2)cc(C)c1C
MCF7 [3]
  pIC50: 5.73
HepG2 [4]
  pIC50: 5.79
Histone deacetylase 2 [19]
  pIC50: 6.37
Histone deacetylase 1 [20]
  pIC50: 6.66
Tubulin beta
  IC50: 2.32 µM

## O=C(/C=C/c1ccc([N+](=O)[O-])cc1)c1ccc(NC(=O)c2ccc(CN3C(=O)c4ccccc4C3=O)cc2)cc1
MCF7 [3]
  pIC50: 5.01
HepG2 [4]
  pIC50: 4.80

## C[C@H](O)C(=O)CCCCC[C@@H]1NC(=O)[C@H]2CCCN2C(=O)[C@H](Cc2ccccc2)NC(=O)C(C2CCCCC2)(C2CCCCC2)NC1=O
Histone deacetylase 4 [5]
  pIC50: 6.17

## COc1ccc(/C=C/C(=O)c2ccc(NC(=O)c3ccc(CN4C(=O)c5ccccc5C4=O)cc3)cc2)c(OC)c1
MCF7 [3]
  pIC50: 5.68
HepG2 [4]
  pIC50: 5.76

## O=C(/C=C/c1cccc2ccccc12)c1ccc(NC(=O)c2ccc(CN3C(=O)c4ccccc4C3=O)cc2)cc1
MCF7 [3]
  pIC50: 4.95
HepG2 [4]
  pIC50: 5.09

## C[C@H](O)C(=O)CCCCC[C@@H]1NC(=O)[C@H]2CCCN2C(=O)[C@H](Cc2ccccc2)NC(=O)C(C)(C)NC1=O
Histone deacetylase 4 [5]
  pIC50: 6.48

## O=C(/C=C/c1cc2ccc1CCc1ccc(cc1)CC2)c1ccc(NC(=O)c2ccc(CN3C(=O)c4ccccc4C3=O)cc2)cc1
MCF7 [3]
  pIC50: 5.28
HepG2 [4]
  pIC50: 5.07

## O=C(/C=C/c1ccc(Cl)cc1)c1ccc(NC(=O)c2ccc(CN3C(=O)c4ccccc4C3=O)cc2)cc1
MCF7 [3]
  pIC50: 5.39
HepG2 [4]
  pIC50: 5.49

## Cc1c[nH]c([C@@H]2NC(=O)[C@H](CCCCCC(=O)[C@H](C)O)NC(=O)[C@H]3CCCN3C(=O)[C@H](Cc3ccccc3)NC2=O)n1
Histone deacetylase 4 [5]
  pIC50: 3.46
